The subject of assay [1] is synthesis of LTB4 in human whole blood. Kind of assay: LTB4 production inhibition assay in human whole blood (HWB). Type of assay: cell-based. Particulars: heparinized human whole blood, 15 min at 37° C., Calcimycin 20 μM 30 min, plasma LTB4 by HTRF. As for the experimental part:
The compounds of the invention are additionally tested in a human whole blood (HWB) assay to determine their ability to inhibit the synthesis of LTB4 in a cellular system. Compounds are combined with heparinized human whole blood and incubated for 15 minutes at 37° C. Calcimycin (20 μM final, prepared in phosphate-buffered saline, pH 7.4) is then added and the mixture is incubated for another 30 minutes at 37° C. The samples are centrifuged for 5 min at low speed (1500×g) and the plasma layer is removed. Plasma LTB4 concentrations are then measured using an antibody-based homogenous time-resolved fluorescence method (CisBio, Bedford, Mass.).
(Time-resolved FRET reads energy transfer from a long-lived donor to a nearby acceptor.)

Another assay concerns the target human LTA4 hydrolase (Homo sapiens (Human), UniProt P09960). Kind of assay: LTA4H Enzyme assay (peptidase, Arg-AMC cleavage). The format is biochemical. Particulars: LTA4H Enzyme 1 nM, Arg-AMC substrate 50 μM, room temperature 1 h, fluorescence. As for the experimental part:
The compounds of the invention are assessed for the ability to interact with human LTA4 hydrolase in an enzymatic assay that measures the ability of the enzyme to cleave the peptide bond of arginyl-aminomethylcoumarin (Arg-AMC). LTA4H Enzyme (1 nM final), Arg-AMC substrate (50 μM final), and compound are combined in a reaction buffer (50 mM Tris-HCl (pH 7.5), 100 mM KCl, 0.5% bovine serum albumin) at room temperature for 1 h. The formation of product is assessed by measuring the fluorescence of aminomethylcoumarin product (excitation wavelength 380 nm/emission wavelength 460 nm).

The values that follow come from US9573957B2 (Boehringer Ingelheim International GmbH, priority 2013, dated 2017).

SMILES strings stand for the structures.

The term IC50 denotes the concentration that inhibits the measured activity by half.

human LTA4 hydrolase, sequence (P09960 whole entry): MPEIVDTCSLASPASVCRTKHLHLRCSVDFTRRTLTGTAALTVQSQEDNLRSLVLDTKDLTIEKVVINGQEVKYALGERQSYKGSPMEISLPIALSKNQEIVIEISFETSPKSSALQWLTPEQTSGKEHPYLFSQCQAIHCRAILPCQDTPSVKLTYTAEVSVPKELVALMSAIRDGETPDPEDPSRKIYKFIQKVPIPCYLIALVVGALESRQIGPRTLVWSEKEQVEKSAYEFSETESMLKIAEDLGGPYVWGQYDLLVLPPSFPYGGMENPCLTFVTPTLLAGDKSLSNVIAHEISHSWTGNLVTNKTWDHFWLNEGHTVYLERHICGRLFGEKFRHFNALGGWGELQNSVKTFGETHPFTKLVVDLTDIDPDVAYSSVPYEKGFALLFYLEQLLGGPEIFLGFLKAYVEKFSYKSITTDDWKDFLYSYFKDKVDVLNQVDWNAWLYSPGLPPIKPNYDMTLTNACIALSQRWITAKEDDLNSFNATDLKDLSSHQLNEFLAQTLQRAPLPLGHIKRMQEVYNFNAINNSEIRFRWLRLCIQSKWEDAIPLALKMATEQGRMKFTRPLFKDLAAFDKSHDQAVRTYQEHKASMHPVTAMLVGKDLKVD

On to `O=C(N1CCN(Cc2ccc3cc(Oc4ccc(-c5ccn[nH]5)cn4)ccc3n2)CC1)C1(CO)CC1` [Example 138, (1-Hydroxymethyl-cyclopropyl)-(4-{6-[5-(2H-pyrazol-3-yl)-pyridin-2-yloxy]-quinolin-2-ylmethyl}-piperazin-1-yl)-methanone], for which the values for the IC50 (in assay [1]; on human LTA4 hydrolase) were 340 nM and 1.7 nM, respectively. The like results for `CN(Cc1ccc2cc(Oc3ccc(-c4ccn[nH]4)cn3)ccc2c1)[C@@H]1CCN(C(=O)CO)C1` [Example 19, 2-Hydroxy-1-[(R)-3-(methyl-{6-[5-(2H-pyrazol-3-yl)-pyridin-2-yloxy]-naphthalen-2-ylmethyl}-amino)-pyrrolidin-1-yl]-ethanone] were, in that order, 140 nM and 0.63 nM.

On to `N#CC1(C(=O)N2CCN(Cc3ccc4cc(Oc5ccc(-c6ccn[nH]6)cn5)ccc4n3)CC2)CCOCC1` [Example 148, 4-(4-{6-[5-(2H-Pyrazol-3-yl)-pyridin-2-yloxy]-quinolin-2-ylmethyl}-piperazine-1-carbonyl)-tetrahydro-pyran-4-carbonitrile], for which the figures for the 50% inhibitory concentration (IC50) (in assay [1]; on human LTA4 hydrolase) were 1100 nM and 7.9 nM, respectively. For `CO[C@@H](C)C(=O)N1CC2CCC(C1)N2Cc1ccc2cc(Oc3ccc(-c4ccn[nH]4)cn3)ccc2n1` [Example 53, (S)-2-Methoxy-1-(8-{6-[5-(2H-pyrazol-3-yl)-pyridin-2-yloxy]-quinolin-2-ylmethyl}-3,8-diaza-bicyclo[3.2.1]oct-3-yl)-propan-1-one] the same measures were 110 nM and 0.66 nM. The like results for `CC(C)[C@@H](O)C(=O)N1CCN(Cc2ccc3cc(Oc4ccc(-c5ccn[nH]5)cn4)ccc3n2)CC1` [Example 120, (R)-2-Hydroxy-3-methyl-1-(4-{6-[5-(2H-pyrazol-3-yl)-pyridin-2-yloxy]-quinolin-2-ylmethyl}-piperazin-1-yl)-butan-1-one] were, in that order, 700 nM and 5.9 nM. The like results for `CO[C@H](C)C(=O)N1CCN(CCc2coc3cc(Oc4ccc(-c5ccn[nH]5)cn4)ccc23)CC1` [Example 78, (R)-2-Methoxy-1-[4-(2-{6-[5-(2H-pyrazol-3-yl)-pyridin-2-yloxy]-benzofuran-3-yl}-ethyl)-piperazin-1-yl]-propan-1-one] were, in that order, 190 nM and 0.92 nM.

With `C[C@H](O)C(=O)N1CCN(CCc2coc3cc(Oc4ccc(-c5ccn[nH]5)cn4)ccc23)CC1` [Example 83, (S)-2-Hydroxy-1-[4-(2-{6-[5-(2H-pyrazol-3-yl)-pyridin-2-yloxy]-benzofuran-3-yl}-ethyl)-piperazin-1-yl]-propan-1-one], the IC50 worked out at 240 nM in assay [1] and 0.86 nM against human LTA4 hydrolase. On to `O=C(CO)N1CCC2(CCN(Cc3ccc4cc(Oc5ccc(-c6ccn[nH]6)cn5)ccc4n3)C2)C1` (stereo not drawn) [Example 102, 2-Hydroxy-1-(7-{6-[5-(2H-pyrazol-3-yl)-pyridin-2-yloxy]-quinolin-2-ylmethyl}-2,7-diaza-spiro[4.4]non-2-yl)-ethanone], for which the values for the IC50 (in assay [1]; against human LTA4 hydrolase) were 150 nM and 0.66 nM, respectively. `O=C([C@H]1CCCO1)N1CCN(Cc2ccc3cc(Oc4ccc(-c5ccn[nH]5)cn4)ccc3n2)CC1` [Example 133, (4-{6-[5-(2H-Pyrazol-3-yl)-pyridin-2-yloxy]-quinolin-2-ylmethyl}-piperazin-1-yl)-(R)-tetrahydro-furan-2-yl-methanone]: the half-maximal inhibitory concentration (IC50) came to 320 nM in assay [1] and 2.9 nM on human LTA4 hydrolase.

As for `C[C@H](O)C(=O)N1CCN(Cc2ccc3cc(Oc4ncc(-c5ccn[nH]5)cn4)ccc3c2)CC1` [Example 30, (S)-2-Hydroxy-1-(4-{6-[5-(2H-pyrazol-3-yl)-pyrimidin-2-yloxy]-naphthalen-2-ylmethyl}-piperazin-1-yl)-propan-1-one], the IC50 was determined as 230 nM in assay [1] and 1.3 nM against human LTA4 hydrolase. The like results for `C[C@@H](O)C(=O)N1CCN(Cc2cn3cc(Oc4ccc(-c5ccn[nH]5)cc4)ccc3n2)CC1` [Example 94, (R)-2-Hydroxy-1-(4-{6-[4-(2H-pyrazol-3-yl)-phenoxy]-imidazo[1,2-a]pyridin-2-ylmethyl}-piperazin-1-yl)-propan-1-one] were, in that order, 350 nM and 0.87 nM. For `OCC1CCN(Cc2ccc3cc(Oc4ccc(-c5ccn[nH]5)cn4)ccc3c2)CC1` [Example 17, (1-{6-[5-(2H-Pyrazol-3-yl)-pyridin-2-yloxy]-naphthalen-2-ylmethyl}-piperidin-4-yl)-methanol] the same measures were 160 nM and 0.75 nM. The like results for `O=C(C1CC1)N1CCN(Cc2ccc3cc(Oc4ncc(-c5ccn[nH]5)cn4)ccc3c2)CC1` [Example 40, Cyclopropyl-(4-{6-[5-(2H-pyrazol-3-yl)-pyrimidin-2-yloxy]-naphthalen-2-ylmethyl}-piperazin-1-yl)-methanone] were, in that order, 340 nM and 1.8 nM. For the compound `CCOCC(=O)N1CCN(Cc2ccc3cc(Oc4ccc(-c5ccn[nH]5)cn4)ccc3n2)CC1` [Example 124, 2-Ethoxy-1-(4-{6-[5-(2H-pyrazol-3-yl)-pyridin-2-yloxy]-quinolin-2-ylmethyl}-piperazin-1-yl)-ethanone], the IC50 in assay [1] stood at 420 nM; on human LTA4 hydrolase it was 2.6 nM. For `O=C(CO)N1CCN(CCc2coc3cc(Oc4ccc(-c5ccn[nH]5)cn4)ccc23)CC1` [Example 82, 2-Hydroxy-1-[4-(2-{6-[5-(2H-pyrazol-3-yl)-pyridin-2-yloxy]-benzofuran-3-yl}-ethyl)-piperazin-1-yl]-ethanone] the same measures were 410 nM and 1.3 nM. For `C[C@@H](O)C(=O)N1CCN(Cc2ccc3cc(Oc4ccc(-c5ccn[nH]5)cn4)ccc3n2)CC1` [Example 123, (R)-2-Hydroxy-1-(4-{6-[5-(2H-pyrazol-3-yl)-pyridin-2-yloxy]-quinolin-2-ylmethyl}-piperazin-1-yl)-propan-1-one] the same measures were 200 nM and 0.88 nM.

Consider `O[C@H]1CCN(Cc2ccc3cc(Oc4ncc(-c5ccn[nH]5)cn4)ccc3c2)C1` [Example 46, (S)-1-{6-[5-(2H-Pyrazol-3-yl)-pyrimidin-2-yloxy]-naphthalen-2-ylmethyl}-pyrrolidin-3-ol], for which the IC50 in assay [1] worked out at 230 nM; on human LTA4 hydrolase it was 2.5 nM. For `CC(C)C(=O)N1CCN(Cc2ccc3cc(Oc4ncc(-c5ccn[nH]5)cn4)ccc3c2)CC1` [Example 41, 2-Methyl-1-(4-{6-[5-(2H-pyrazol-3-yl)-pyrimidin-2-yloxy]-naphthalen-2-ylmethyl}-piperazin-1-yl)-propan-1-one] the same measures were 430 nM and 0.97 nM. The like results for `CN1CCC2(CCN(Cc3coc4cc(Oc5ccc(-c6ccn[nH]6)cn5)ccc34)CC2)C1=O` [Example 110, 2-Methyl-8-{6-[5-(2H-pyrazol-3-yl)-pyridin-2-yloxy]-benzofuran-3-ylmethyl}-2,8-diaza-spiro[4.5]decan-1-one] were, in that order, 130 nM and 0.22 nM. The like results for `CN(C(=O)CO)C1CCN(Cc2ccc3cc(Oc4ncc(-c5ccn[nH]5)cn4)ccc3c2)CC1` [Example 31, 2-Hydroxy-N-methyl-N-(1-{6-[5-(2H-pyrazol-3-yl)-pyrimidin-2-yloxy]-naphthalen-2-ylmethyl}-piperidin-4-yl)-acetamide] were, in that order, 270 nM and 1.5 nM. For `CC(=O)N1CCC(NCc2coc3cc(Oc4ccc(-c5ccn[nH]5)cn4)ccc23)CC1` [Example 108, 1-[4-({6-[5-(2H-Pyrazol-3-yl)-pyridin-2-yloxy]-benzofuran-3-ylmethyl}-amino)-piperidin-1-yl]-ethanone], the IC50 in assay [1] turned out to be 180 nM; at human LTA4 hydrolase, 0.71 nM. `O=C(CO)N1CCN(Cc2ccc3cc(Oc4ccc(-c5ccn[nH]5)cn4)ccc3c2)CC1` [Example 7, 2-Hydroxy-1-(4-{6-[5-(2H-pyrazol-3-yl)-pyridin-2-yloxy]-naphthalen-2-ylmethyl}-piperazin-1-yl)-ethanone]: the 50% inhibitory concentration (IC50) in assay [1] stood at 120 nM; at human LTA4 hydrolase, 0.4 nM. For `CS(=O)(=O)NC1CCN(Cc2coc3cc(Oc4ccc(-c5ccn[nH]5)cn4)ccc23)CC1` [Example 105, N-(1-{6-[5-(2H-Pyrazol-3-yl)-pyridin-2-yloxy]-benzofuran-3-ylmethyl}-piperidin-4-yl)-methanesulfonamide], the IC50 is 210 nM in assay [1] and 0.81 nM on human LTA4 hydrolase. The like results for `CC[C@H](CC#N)NCc1ccc2cc(Oc3ccc(-c4ccn[nH]4)cn3)ccc2n1` [Example 44, (R)-3-({6-[5-(2H-Pyrazol-3-yl)-pyridin-2-yloxy]-quinolin-2-ylmethyl}-amino)-pentanenitrile] were, in that order, 870 nM and 2.7 nM. For `CC[C@@H](O)C(=O)N1CCN(Cc2ccc3cc(Oc4ccc(-c5ccn[nH]5)cn4)ccc3n2)CC1` [Example 134, (R)-2-Hydroxy-1-(4-{6-[5-(2H-pyrazol-3-yl)-pyridin-2-yloxy]-quinolin-2-ylmethyl}-piperazin-1-yl)-butan-1-one] the same measures were 410 nM and 3.1 nM.

The compound `N#CC1(C(=O)N2CCN(Cc3ccc4cc(Oc5ccc(-c6ccn[nH]6)cn5)ccc4n3)CC2)CCCC1` [Example 147, 1-(4-{6-[5-(2H-Pyrazol-3-yl)-pyridin-2-yloxy]-quinolin-2-ylmethyl}-piperazine-1-carbonyl)-cyclopentanecarbonitrile] returned an IC50 at human LTA4 hydrolase of 12 nM.
